Results published in patent publication US5563128A, “Phosphonate derivatives of lipophilic amines” (Rhone-Poulenc Rorer Pharmaceuticals Inc., priority 1995, dated 1996).
pIC50: −log10 of the molar value.

Target: T1, squalene synthase (Rattus norvegicus, UniProt Q02769)
T1 construct: Microsomes are prepared by centrifugation (100,000 g) and then resuspended in the assay buffer; from tissue; host or cells: liver microsomes of male Sprague-Dawley rats (animals from Taconic Farms, Germantown, N.Y.)
T1 sequence (Q02769 1-416): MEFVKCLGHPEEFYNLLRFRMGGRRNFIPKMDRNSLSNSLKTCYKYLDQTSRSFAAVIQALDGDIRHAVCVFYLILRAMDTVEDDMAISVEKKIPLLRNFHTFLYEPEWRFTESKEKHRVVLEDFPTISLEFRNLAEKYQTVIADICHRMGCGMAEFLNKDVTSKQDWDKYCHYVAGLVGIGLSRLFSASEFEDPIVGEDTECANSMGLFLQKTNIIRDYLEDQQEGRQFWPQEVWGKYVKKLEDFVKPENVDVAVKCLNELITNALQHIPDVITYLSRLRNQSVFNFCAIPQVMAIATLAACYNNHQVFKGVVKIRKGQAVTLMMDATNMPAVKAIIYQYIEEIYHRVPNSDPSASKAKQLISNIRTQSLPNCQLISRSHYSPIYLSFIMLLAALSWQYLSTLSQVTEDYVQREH
Assay: Squalene Synthase Inhibition Assay (rat liver microsomes, [3H]FPP)
Format: biochemical, rat (male Sprague-Dawley)
Settings: for pIC50: 50 mM, pH 7.4
Method: Squalene Synthase Inhibition Assay
I. Preparation of Assay Substances:
Test solutions are prepared fresh in 100% DMSO or dH2 O. Subsequent dilutions are made in the same solvent. Compounds are tested initially at 1 μM (final concentrations).
Potassium Phosphate (50 mM,) pH 7.4, and HEPES (4-(2-hydroxyethyl)-1-piperazineethanesulfonic acid, 50 mM) pH 7.4 stock buffers are prepared and stored at 4° C. until use.
C) Microsomal Enzyme Preparation:
Fresh livers from male Sprague-Dawley rats (Taconic Farms, Germantown, N.Y.) weighing 150-200 g are collected after exsanguination. All subsequent procedures are performed at 4° C. The liver is homogenized in the assay buffer (50 mM, pH 7.4). Cellular fractions are separated as described by Popjak, G. in "Enzymes of sterol biosynthesis in liver and intermediates of sterol biosynthesis," Meth. Enzymol. […] Microsomes are prepared by centrifugation (100,000 g) and then resuspended in the assay buffer. Microsomes are rehomogenized with a motor-driven Teflon pestle to yield a uniform suspension (~30 mg protein/ml), aliquoted, and stored at -80° C. until use.
II. Squalene Synthase Assay
The procedure is a modification of those described by Popjack (ibid) and Poulter et al. in "Squalene synthase. Inhibition by ammonium analogues of carbocationic intermediates in the conversion of presqualene diphosphate to squalene" J. Am. Chem. Soc. […] All components except [^3 H]FPP are preincubated for 10 min. at 37° C. The reaction is initiated by the addition of [^3 H]FPP. […] The tubes are incubated at 65° C. for 30 min. to solubilize proteins. The mixture is extracted with 5 ml petroleum ether for 10 min. After freezing the lower aqueous phase, the organic phase is transferred to glass tubes containing 2 ml distilled water. After washing the lower aqueous phase is frozen and the petroleum ether phase is removed and counted with 10 ml Ready Safe liquid scintillation cocktail using a Beckman LS-9000 scintillation counter. DPM values are adjusted against a blank (no enzyme).
The difference in radioactivity in the presence and absence of the test compound is used to determine the level of inhibition. […] Tallarida, R. J. and Murray, R. B. Manual of pharmacologic calculations with computer programs.

Structure (SMILES): O=P(O)(O)CCCN1CCC=C(c2ccc(-c3nc4ccccc4o3)cc2)C1
- pIC50 (HEPES buffer): 4.77
- inhibition at 10 µM (Phosphate buffer): 35%

Structure (SMILES): O=P(O)(O)CCCN[C@@H]1CC=CC[C@H]1c1ccc(/C=C/c2ccccc2)cc1 (relative stereo)
- inhibition at 10 µM (HEPES buffer): -2%
- inhibition at 5 µM (Phosphate buffer, @ 5 μM): 61%

Structure (SMILES): COP(=O)(O)C(CCN[C@@H]1CC=CC[C@H]1c1ccc(/C=C/c2ccccc2)cc1)P(=O)(O)OC (relative stereo)
- inhibition at 10 µM (HEPES buffer): 69%

Structure (SMILES): O=P(O)(O)C(CCN[C@@H]1CCCC[C@H]1OCc1ccc(-c2nc3ccccc3o2)cc1)P(=O)(O)O (relative stereo)
- pIC50 (HEPES buffer): 7.89

Structure (SMILES): CCOP(=O)(OCC)C(CCN[C@@H]1CCCC[C@H]1OCc1ccc(-c2nc3ccccc3o2)cc1)P(=O)(OCC)OCC (relative stereo)
- inhibition at 10 µM (HEPES buffer): 14%
